The source of these data is US20210386721A1, “SUBSTITUTED PHENYLPROPENYL PYRIDINE DERIVATIVES, THEIR PREPARATION AND PHARMACEUTICAL APPLICATIONS” (SHANGHAI HAIYAN PHARMACEUTICAL TECHNOLOGY CO., LTD., priority 2019, published 2021).

For one assay, the target named is T1, PD-1/PD-L1 (Homo sapiens, UniProt Q9NZQ7).
T1 construct: purchased Cisbio 63ADK000CPDPEB
Briefly: PD-1/PD-L1 binding assay (HTRF, PPI-HTRF). The settings on record: HTRF PD1/PD-L1 binding assay kit; 10 nM Tag1-PD-L1; 25° C. The method, boiled down:
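HTRF binding assay: compound was mixed with tagged proteins at final concentrations of 10 nM Tag1-PD-L1 and 2 nM PD1 for 15 min at 25 °C. Anti-Tag1-Eu³⁺ and anti-Tag2-XL665 antibodies were then added for 16 h at 25 °C. IC50 was derived from the 665/620 nm emission ratio.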

Assay [1] relates to Jurkat T(PD1 Luc-)/CHOK1(PDL-1). Briefly: Jurkat T(PD1 Luc-)/CHOK1(PDL-1) cell experiment (luciferase reporter). The assay is classed as cell-based. Conditions: CHO/PD-L1-OKT3 cells co-cultured with Jurkat/PD1-NFAT-Luc cells for 6 hours; Bio-Glo luciferase signal. The protocol: Assay 2 Jurkat T(PD1 Luc-)/CHOK1(PDL-1) Cell Experiment
G418, Sangon Biotech #A100859-0001, Cat Number G108BA0003, 5 ml of deionized water being added into each bottle, store at 4° C.
CHO/PD-L1-OKT3 cells (constructed by referring to Promega's PD-1/PD-L1 Blockade Bioassays system) cultured in F-12K medium (containing 10% FBS, 800 ug/ml G418, 400 ug/ml D Hygromycin B) were planted into a 96-well plate at 2×10^4 per well, and incubated for 24 hours at 37° C. and 5% CO2. part of the medium was removed, and the test compound dissolved in DMSO with a final concentration of 1 uM was added, and DMSO at the same concentration was added into the control cells. Jurkat/PD1-NFAT-Luc cells (constructed by referring to Promega's PD-1/PD-L1 Blockade Bioassays system) were added at 5×10^5 per well at the same time, and cultured for 6 hours. The corresponding luciferase signal was detected by Bio-Glo™ (Promega, G7940) reagent. The EC50 of each compound to be tested was calculated through the non-linear regression of XLfit software.
In general terms: Reporter assays use an easily measured gene product as a stand-in for the process of interest.

T1 sequence (Q9NZQ7 19-238 limits assumed): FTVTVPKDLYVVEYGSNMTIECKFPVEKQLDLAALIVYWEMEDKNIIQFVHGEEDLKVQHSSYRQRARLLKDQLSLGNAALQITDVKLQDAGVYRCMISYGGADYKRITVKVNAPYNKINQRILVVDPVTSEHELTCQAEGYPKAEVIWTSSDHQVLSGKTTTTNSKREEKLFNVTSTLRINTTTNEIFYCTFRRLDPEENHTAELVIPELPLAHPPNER

With `COc1cc(/C=C/c2cccc(-c3cccc(-c4nc5cc(CN6CC[C@@H](O)C6)cc(C#N)c5o4)c3C)c2C)c(C(F)(F)F)cc1CN1CCC[C@H]1C(=O)O` [Z-36, (4-((E)-2-(3′-(7-cyano-5-(((R)-3-hydroxypyrrolidin-1-yl)methyl)benzo[d]oxazol-2-yl)-2,2′-dimethyl-[1,1′-biphenyl]-3-yl)vinyl)-2-methoxy-5-(trifluoromethyl)benzyl)-L-proline], the IC50 – broadly, the midpoint of a concentration-inhibition curve – at PD-1/PD-L1 amounted to 2 nM. Further, in assay [1], a half-maximal effect (EC50) was put at 50 nM.
As for `COc1cc(/C=C/c2cccc(-c3cccc(-c4nc5cc(CN6CC[C@@H](C(=O)O)C6)cc(C#N)c5o4)c3C)c2Cl)c(C(F)(F)F)cc1CN1CC[C@@H](O)C1` [Z-38], the concentration for half-maximal inhibition (IC50) on PD-1/PD-L1 stood at 1 nM. In addition, a half-maximal response in assay [1] (EC50) required 83 nM.
As for `COc1cc(/C=C/c2cccc(-c3cccc(-c4nc5cc(CNCCO)cc(C#N)c5o4)c3C)c2C)c(C(F)(F)F)cc1CN1CCCC[C@H]1C(=O)O` [Z-40], the IC50 at PD-1/PD-L1 was 1 nM. Besides, a half-maximal effect in assay [1] (EC50) was put at 108 nM.
For `COc1cc(/C=C/c2cccc(-c3cccc(-c4nc5cc(CN[C@@H](C)CO)cc(C#N)c5o4)c3C)c2C)c(C(F)(F)F)cc1CN1CCCC[C@H]1C(=O)O` [Z-41, (S)-1-(4-((E)-2-(3′-(7-cyano-5-((((S)-1-hydroxypropan-2-yl)amino)methyl)benzo[d]oxazol-2-yl)-2,2′-dimethyl-[1,1′-biphenyl]-3-yl)vinyl)-2-methoxy-5-(trifluoromethyl)benzyl) piperidine-2-carboxylic Acid], in that order: 2 nM and 109 nM.
`COc1cc(/C=C/c2cccc(-c3cccc(-c4nc5cc(CN6CC[C@@H](C(=O)O)C6)cc(C#N)c5o4)c3Cl)c2C)c(C(F)(F)F)cc1CN1CC[C@@H](O)C1` [Z-42] returned a half-maximal inhibitory concentration (IC50) on PD-1/PD-L1 of 1 nM. In assay [1], the EC50 – broadly, the concentration needed to bring the measured effect to its halfway point – was 64 nM.
On the same counts, the results for `COc1cc(/C=C/c2cccc(-c3cccc(-c4nc5cc(CN6CC[C@@H](O)C6)cc(C#N)c5o4)c3C)c2C#N)c(C(F)(F)F)cc1CN1CC[C@@H](C(=O)O)C1` [Z-43] are 1 nM and 72 nM.
In turn, `COc1cc(/C=C/c2ccnc(-c3cccc(-c4nc5cc(CN6CC[C@@H](O)C6)cc(C#N)c5o4)c3C)c2C#N)c(C(F)(F)F)cc1CN1CC[C@@H](C(=O)O)C1` [Z-49] registered an IC50 on PD-1/PD-L1 of 1 nM. This molecule gave a concentration for a half-maximal effect (EC50) in assay [1] of 78 nM.
Molecule `Cc1cc(/C=C/c2nccc(-c3cccc(-c4nc5cc(CN6CC[C@@H](O)C6)cc(C#N)c5o4)c3C)c2C#N)c(C(F)(F)F)cc1CN1CC[C@@H](C(=O)O)C1` [Z-51] yielded an IC50 at PD-1/PD-L1 of 1 nM. The molecule further registered an EC50 in assay [1] of 56 nM.
At PD-1/PD-L1, `COc1cc(/C=C/c2ccnc(-c3cccc(-c4nc5cc(CN6CC[C@@H](O)C6)cc(C#N)c5o4)c3C)c2Cl)c(C(F)(F)F)cc1CN1CC[C@@H](C(=O)O)C1` [Z-52] displayed an IC50 of 1 nM. This molecule returned an EC50 in assay [1] of 153 nM.
Regarding `COc1cc(/C=C/c2cccc(-c3cccc(-c4nc5c(C#N)cc(CN6CC[C@@H](C(=O)O)C6)cn5n4)c3C)c2C)c(C(F)(F)F)cc1CN1CC[C@@H](O)C1` [Z-53, (R)-1-((8-cyano-2-(3′-((E)-4-(((R)-3-hydroxypyrrolidin-1-yl)methyl)-5-methoxy-2-(trifluoromethyl)styryl)-2,2′-dimethyl-[1,1′-biphenyl]-3-yl)-[1,2,4]triazolo[1,5-a]pyridin-6-yl)methyl) pyrrolidine-3-carboxylic Acid], on PD-1/PD-L1, the IC50 is 1 nM. Besides, the EC50 in assay [1] was found to be 28 nM.
For the molecule `COc1cc(/C=C/c2cccc(-c3cccc(-c4ccc(CNC[C@@H]5CCC(=O)N5)c(OC)n4)c3C)c2C)c(C(F)(F)F)cc1CN1CC[C@@H](C(=O)O)C1` [Z-54, (R)-1-(2-methoxy-4-((E)-2-(3′-(6-methoxy-5-(((((S)-5-oxopyrrolidin-2-yl)methyl)amino)methyl)pyridin-2-yl)-2,2′-dimethyl-[1,1′-biphenyl]-3-yl)vinyl)-5-(trifluoromethyl)benzyl)pyrrolidine-3-carboxylic Acid], on PD-1/PD-L1, the IC50 was 1 nM. Moreover, in assay [1], the midpoint of the response, the EC50, lay at 149 nM.
For the molecule `COc1cc(/C=C/c2cccc(-c3cccc(-c4cnc(CN5CC[C@@H](O)C5)c(OC)n4)c3C)c2C)c(C(F)(F)F)cc1CN1CC[C@@H](C(=O)O)C1` [Z-57], the IC50 on PD-1/PD-L1 is 1 nM. In addition, the EC50 in assay [1] came out at 66 nM.
On to `COc1cc(/C=C/c2cccc(-c3cccc(-c4nc5c(c(OC)n4)CN(C[C@@H]4CCC(=O)N4)CC5)c3C)c2C)c(C(F)(F)F)cc1CN1CC[C@@H](C(=O)O)C1` [Z-60, (R)-1-(2-methoxy-4-((E)-2-(3′-(4-methoxy-6-(((S)-5-oxopyrrolidin-2-yl)methyl)-5,6,7,8-tetrahydropyrido[4,3-d]pyrimidin-2-yl)-2,2′-dimethyl-[1,1′-biphenyl]-3-yl)vinyl)-5-(trifluoromethyl)benzyl) pyrrolidine-3-carboxylic Acid], for which, at PD-1/PD-L1, the IC50 was found to be 2 nM. It took 79 nM to reach a half-maximal effect in assay [1] (EC50).
For `COc1cc(/C=C/c2nccc(-c3cccc(NC(=O)c4ccc(CN5CC[C@@H](O)C5)cn4)c3C)c2C#N)c(C(F)(F)F)cc1CN1CC[C@@H](C(=O)O)C1` [Z-74], in that order: 1 nM and 51 nM.
Take `Cc1cc(/C=C/c2nccc(-c3cccc(NC(=O)c4ccc(CN5CC[C@@H](O)C5)cn4)c3Cl)c2C)c(Cl)cc1CN1CC[C@@H](C(=O)O)C1` [Z-76]: the IC50 at PD-1/PD-L1 worked out at 1 nM. A half-maximal response in assay [1] (EC50) required 361 nM.
As for `COc1cc(/C=C/c2cccc(-c3cccc(NC(=O)c4ccc(CN5CC[C@@H](O)C5)cn4)c3Cl)c2C)c(C(F)(F)F)cc1CN1CC[C@@H](C(=O)O)C1` [Z-80], the IC50 at PD-1/PD-L1 turned out to be 1 nM. The EC50 in assay [1] amounted to 36 nM.
On to `Cc1cc(/C=C/c2nccc(-c3cccc(NC(=O)c4ccc(CN5CC[C@@H](O)C5)cn4)c3Cl)c2C#N)c(Cl)cc1CN1CCCC[C@H]1C(=O)O` [Z-81], for which the IC50 at PD-1/PD-L1 was 1 nM. In assay [1], this molecule came in with an EC50 of 44 nM.
Regarding `COc1cc(/C=C/c2cccc(-c3cccc(NC(=O)c4ccc(CN5CC[C@@H](O)C5)cn4)c3Cl)c2C)c(C(F)(F)F)cc1CN1CCCC[C@H]1C(=O)O` [Z-82], the IC50 on PD-1/PD-L1 amounted to 1 nM. A half-maximal response in assay [1] (EC50) required 29 nM.
`Cc1cc(/C=C/c2nccc(-c3cccc(NC(=O)c4ccc(CN5CC[C@@H](O)C5)cn4)c3C)c2Cl)c(Cl)cc1CN1CCCC[C@H]1C(=O)O` [Z-83] showed an IC50 at PD-1/PD-L1 of 1 nM. This molecule came in with an EC50 in assay [1] of 113 nM.
In the case of `COc1cc(/C=C/c2cccc(-c3cccc(NC(=O)c4ccc(CN5CC[C@@H](O)C5)cn4)c3C)c2C)c(C(F)(F)F)cc1CN1CC[C@@H](C(=O)O)C1` [Z-84], at PD-1/PD-L1, the IC50 worked out at 1 nM. Moreover, in assay [1], the concentration giving a half-maximal response (EC50) is 25 nM.
For `COc1cc(/C=C/c2cccc(-c3cccc(NC(=O)c4ccc(CN5CC[C@@H](O)C5)cn4)c3C)c2Cl)c(C(F)(F)F)cc1CN1CC[C@@H](C(=O)O)C1` [Z-85], in that order: 1 nM and 34 nM.
For `Cc1cc(/C=C/c2cccc(-c3cccc(NC(=O)c4ccc(CN5CC[C@@H](O)C5)cn4)c3C)c2C)c(Cl)cc1CN1CC[C@@H](C(=O)O)C1` [Z-86], the IC50 at PD-1/PD-L1 came out at 1 nM. In assay [1], the EC50 is 38 nM.
Molecule `COc1cc(/C=C/c2cccc(-c3cccc(NC(=O)c4ccc(CN5CC[C@@H](O)C5)cn4)c3Cl)c2C)c(C(F)(F)F)cc1CN1CCC(C)(C(=O)O)C1` (stereo partly drawn) [Z-87, 1-(4-((E)-2-(2′-chloro-3′-(5-(((R)-3-hydroxypyrrolidin-1-yl)methyl)picolinamido)-2-methyl-[1,1′-biphenyl]-3-yl)vinyl)-2-methoxy-5-(trifluoromethyl)benzyl)-3-methylpyrrolidine-3-carboxylic Acid] had an IC50 on PD-1/PD-L1 of 1 nM. In assay [1], this molecule came in with an EC50 of 26 nM.
